According to patent publication US20260191194A1, “OXABICYCLOALKANE COMPOUNDS, PREPARATION METHOD THEREFOR, AND HERBICIDAL COMPOSITION AND USE THEREOF” (QINGDAO KINGAGROOT CHEMICAL COMPOUND CO., LTD., priority 2022, published 2026):

Legend:
Wheat = settings: in vivo
Description: (§1) Monocotyledonous and dicotyledonous weed seeds as well as major crop seeds (wheat, corn, rice, soybean, peanut, cotton, oilseed rape, millet, and sorghum) were placed in plastic pots filled with soil, and then covered with 0.5-2 cm of soil. The test compounds of the present invention were individually dissolved with acetone, then added with Tween 80, diluted with a certain amount of water to obtain a solution of a certain concentration, and sprayed immediately after sowing. After drug application, cultivation was conducted for 4 weeks in a greenhouse and then the experimental results were observed.

Rice = settings: japonica, in vivo, 7 days
Method: In addition, after being loaded into the 1/1,000,000 ha pot, the rice field soil was leveled to keep the water storage at a depth of 2-3 cm. The rice (japonica rice) at 3-leaf stage was transplanted at a transplanting depth of 2-3 cm the next day. The compounds of the present invention were treated in the same manner as above on the 3rd day after the transplantation.
The effects were evaluated according to the above-mentioned activity level criteria.

Direct sowing rice = settings: in vivo, 7 days
Method: To simulate a field of direct sowing rice, a 5-cm water layer was added to the container first, fully mixed with mud to form slurry, and then rice seeds were scattered in. After the slurry became clear, the water layer was removed. The soil was kept moist and applied with drug solution evenly by spraying. The soil was rehydrated to 3-cm deep 3-4 days after drug application.
The doses of the compounds used in the above-mentioned experiments were 3.75, 7.5, 15, 30, 60, and 120 g a.i./ha. […] The effects were evaluated according to the above-mentioned activity level criteria.

Beckmannia syzigachne = experiment: Pre-emergence test experiment; format: in vivo; settings: activity level, sprayed after sowing, 4 weeks
Description: as §1

Setaria viridis = experiment: Pre-emergence test experiment; format: in vivo; settings: activity level, sprayed after sowing, 4 weeks
Description: as §1

Corn = settings: in vivo, 4 weeks
Description: as §1

Cotton = settings: in vivo, 4 weeks
Description: as §1

Peanut = settings: in vivo, 4 weeks
Description: as §1

Soybean = settings: in vivo, 4 weeks
Description: as §1

Echinochloa crusgalli = experiment: Weed control effect evaluation in rice fields; format: in vivo; settings: activity level, 0.5-leaf stage, flooded pot, 14th day, weed resistant to pyrazosulfuron
Description: (§2) After rice field soil was loaded into a 1/1,000,000 ha pot, the seeds of Echinochloa crusgalli, Echinochloa phyllopogon, Monochoria vaginalis, Leptochloa chinensis, and Ludwigia prostrata were sowed and gently covered with soil, then left to stand in a greenhouse with water storage of 0.5-1 cm deep. The tuber of Sagittaria trifolia was planted in the next day or 2 days later. The water storage was kept at a depth of 3-4 cm thereafter. When the Echinochloa crusgalli, Echinochloa phyllopogon, and Leptochloa chinensis reached their 0.5-leaf stages and the Sagittaria trifolia reached the time point of the primary leaf stage, WP or SC aqueous dilutions of the compounds of the present invention formulated according to common formulation methods were homogeneously dripped to the specified effective amount using pipettes for treatment.

Echinochloa phyllopogon = experiment: Weed control effect evaluation in rice fields; format: in vivo; settings: activity level, 0.5-leaf stage, flooded pot, 14th day, weed resistant to pyrazosulfuron
Description: as §2

Digitaria ischaemum = experiment: Activity test of compositions, soil sealing treatment (S); format: in vivo; settings: A alone 60 g a.i./ha, fresh weight inhibition rate 21 days after treatment
Description: (§3) The required active ingredient B was purchased from a reagent company or synthesized by a known method. The technical materials were all dissolved with acetone solvents and diluted with an aqueous solution of 0.1% Tween 80 emulsifier, which were to be used immediately after dilution.
The test soil was quantitatively filled to 3/4 of the pot, and then watered from the bottom of the pot to completely wet the soil to saturation. The test weed seeds were accelerated to just germinate, and then evenly and quantitatively sowed on the soil surface, covered with 0.5-1 cm soil according to the sizes of the seeds, and ready for use 72 hours after sowing.
(§4) Each treatment was repeated 4 times. Four pots with 20 weed seeds sowed per pot were treated each time.
(§5) The well-sowed test materials were evenly placed on a platform with an area of 0.5 m^2, and foliage spraying was carried out by the 3WP-2000-type walking spray tower at a dosage of 450 kg/ha and a spray pressure of 0.3 MPa. After all the solution was sprayed, the air valve was closed, and 30 seconds later, the door of the spray tower was opened, and the nutritional bowl was taken out. Then the air valve was opened, and the spray tube was cleaned by spraying 50 ml of water.
(§6) A method for investigating absolute numbers was employed. Whole seedlings of survival weeds were cut off with a blade along the soil surface, and the fresh weight of the weeds was weighed using an analytical balance. For dead weeds, the fresh weight thereof was zero.
(§7) The investigation was performed 21 days after the treatment for once in total.
(§8) The theoretical fresh weight inhibition rate of a mixed combination of each treatment was calculated by the Gowing method (E0=X+Y−X*Y/100). […] An optimal ratio was determined according to the actual control effects, characteristics of herbicides, and balance of the formulation. In the formula, X represents the fresh weight inhibition rate of the active ingredient A in a dosage of P; Y represents the fresh weight inhibition rate of the active ingredient B in a dosage of Q. The statistical results are shown in Table 4.

Arivela viscosa = experiment: as above; format: in vivo; settings: A alone 60 g a.i./ha, fresh weight inhibition rate 21 days after treatment
Method: as §3
(§9) Weeds were cultivated in a controllable sunlight greenhouse at 20 to 30° C., in natural light, and with relative humidity of 57% to 72%. […] The test soil was quantitatively filled to 3/4 of the pot, and then watered from the bottom of the pot to completely wet the soil to saturation. The test weed seeds were accelerated to just germinate, and then evenly and quantitatively sowed on the soil surface, covered with 0.5-1 cm soil according to the sizes of the seeds, and ready for use 72 hours after sowing.
as §4, §5, §6, §7, §8

Cyperus glomeratus [1] = experiment: as above; format: in vivo; settings: A alone 30 g a.i./ha, fresh weight inhibition rate 21 days after treatment
Method: as §3, §9, §4, §5, §6, §7, §8

Echinochloa glabrescens [2] = experiment: as above; format: in vivo; settings: A alone 30 g a.i./ha, fresh weight inhibition rate 21 days after treatment
Method: as §3, §9, §4, §5, §6, §7, §8

Oxybasis glauca = experiment: as above; format: in vivo; settings: A alone 60 g a.i./ha, fresh weight inhibition rate 21 days after treatment
Method: as §3, §9, §4, §5, §6, §7, §8

Cyperus glomeratus [3] = experiment: Activity test of compositions, early post-emergence foliage spray (F-EP); format: in vivo; settings: A alone 30 g a.i./ha, fresh weight inhibition rate 21 days after treatment
Method: as §3
(§10) Weeds were cultivated by a pot culture method. […] Weed seeds with plump and uniform grains were selected, soaked in lukewarm water at 25° C. for 6 hours, and accelerated to germinate in a 28° C. biochemical incubator (in darkness). The weed seeds that had just germinated were evenly placed on the surface of the soil and then covered with 0.5-1 cm soil according to the sizes of seeds.
(§11) The culture was carried out in a controllable sunlight greenhouse at 20 to 30° C., in natural light, and with relative humidity of 57% to 72%.
as §4
(§12) The agents were used once in total in the experiment. In the stage of 1-2 leaves, the weeds were thinned out to maintain 10 strains per treatment for later use.
as §5, with “well-cultured” for “well-sowed”, “water. The test materials were transferred to and routinely cultured in a greenhouse after the treatment.” for “water.”
as §6, §7, §8

[4] = system: Echinochloa crus-galli var. austrojaponensis; experiment: as above; format: in vivo; settings: fresh weight inhibition rate 21 days after treatment
Method: as §3, §10, §11, §4, §12
as §5, with “well-cultured” for “well-sowed”, “water. The test materials were transferred to and routinely cultured in a greenhouse after the treatment.” for “water.”
as §6, §7, §8

Echinochloa glabrescens [5] = experiment: as above; format: in vivo; settings: A alone 30 g a.i./ha, fresh weight inhibition rate 21 days after treatment
Method: as §3, §10, §11, §4, §12
as §5, with “well-cultured” for “well-sowed”, “water. The test materials were transferred to and routinely cultured in a greenhouse after the treatment.” for “water.”
as §6, §7, §8

Soliva anthemifolia = experiment: as above; format: in vivo; settings: A alone 60 g a.i./ha, fresh weight inhibition rate 21 days after treatment
Method: as §3, §10, §11, §4, §12
as §5, with “well-cultured” for “well-sowed”, “water. The test materials were transferred to and routinely cultured in a greenhouse after the treatment.” for “water.”
as §6, §7, §8

Lolium perenne = experiment: Pre-emergence test experiment; format: in vivo; settings: activity level (fresh weight growth control rate), sprayed after sowing, 4 weeks
Description: as §1

CC(C)C12CCC(C)(O1)C(OCc1c(F)cccc1Cl)C2 (centres unmarked) [Control compound C]
phytotoxicity to wheat (Wheat): unacceptable phytotoxicity | Rice 60 g a.i./ha (Rice): 9 | Direct sowing rice 60 g a.i./ha (Direct sowing rice): 9

CC(C)C12CCC(C)(O1)C(OCc1c(F)cccc1Br)C2 (racemic) [Compound 1]
Beckmannia syzigachne 60 g a.i./ha (Beckmannia syzigachne): 9 | Setaria viridis 30 g a.i./ha (Setaria viridis): 9 | Corn 60 g a.i./ha (Corn): 0 | Cotton 60 g a.i./ha (Cotton): 0 | Peanut 60 g a.i./ha (Peanut): 0 | Soybean 60 g a.i./ha (Soybean): 0 | Echinochloa crusgalli 7.5 g a.i./ha (Echinochloa crusgalli): 9 | Echinochloa phyllopogon 7.5 g a.i./ha (Echinochloa phyllopogon): 9 | Control effect of A applied alone in a corresponding dose (%) (Digitaria ischaemum): 56.4% | Control effect of A applied alone in a corresponding dose (%) (Arivela viscosa): 18.5% | Control effect of A applied alone in a corresponding dose (%) (Cyperus glomeratus [1]): 56.1% | Control effect of A applied alone in a corresponding dose (%) (Echinochloa glabrescens [2]): 58.3% | Control effect of A applied alone in a corresponding dose (%) (Oxybasis glauca): 19.8% | Control effect of A applied alone in a corresponding dose (%) (Cyperus glomeratus [3]): 51.5% | Control effect of A applied alone in a corresponding dose (%) ([4]; A alone 30 g a.i./ha): 38.4% | Control effect of A applied alone in a corresponding dose (%) ([4]; A alone 60 g a.i./ha): 52.7% | Control effect of A applied alone in a corresponding dose (%) (Echinochloa glabrescens [5]): 48.7% | Control effect of A applied alone in a corresponding dose (%) (Soliva anthemifolia): 22.8% | Rice 30 g a.i./ha (Rice): 0

CC(C)C12CCC(C)(O1)C(OCc1ccccc1Br)C2 (centres unmarked) [Control compound A]
Lolium perenne 30 g a.i./ha (Lolium perenne): 1 (Level 1: growth control rate is less than 10%)
